Structures can show the parent of a compound that is named as a salt. Where two headings read alike, the source gives them in different places. Blank lines part the entries; values can stand above or below the molecule they belong to. Non-standard residues stand in square brackets, D forms with d. Residues, ends and D or L forms follow the SMILES beside them. Dopa = N[C@@H](Cc1ccc(O)c(O)c1)C(=O)O
Tests used:
[1] = test system: Caco-2 cells; assay: In-vitro absorption, Caco-2 A-B permeability; assay type: in vitro ADME, human; conditions: Caco-2 A-B; both with and without verapamil
Experimental: Conditions may be adjusted when necessary.
D denotes donor and R is receiver. […] V is the volume of the donor or receiver.
The test was performed with and without verapamil, which is a permeation inhibitor, and the results are presented in Tables 22 (without verapamil) and 34 (with verapamil).

[2] = physchem; assay type: physicochemical; conditions: for solubility thermodynamic: read-out: LD-Lys TFA salt concentration
[3] = Stability observation of the solubility solutions at 25° C. (visual inspection for precipitants); assay type: physicochemical; conditions: 0.75% CD solution
Experimental: The volume of the solution in the bottle was adjusted to 5 ml, either by adding solvent, or be removing any residual solution, after which the bottle was tightly closed and left at 25° C. for stability observation. […] It is further noted that throughout this document, unless mentioned otherwise, the stability was measured using the manual visual inspection Bosch apparatus MIH DX, at a magnification of ×1.75.

[4] = Human liver S9 stability test; assay type: in vitro ADME; conditions: substrate 10 μM, S9 protein 0.2 mg/mL; for Ke: slope of the percentage decrease of remaining compound, 0-60 minutes
Experimental: The stability of several LDAA compounds, in their TFA salt form, in human liver S9 was tested using commercially available liver S9. The substrate concentration was 10 μM, the S9 protein concentration was 0.2 mg/mL, and the incubation time 0, 5, 15, 30 and 60 minutes.
The results are described in Table 18, wherein the results describe the Ke, i.e., the slope of the percentage decrease of the remaining amount of the compound, measured at each of the above time points, such that the higher the Ke the faster the metabolism.

[5] = Comparative formulation tests, physical stability (Tables 32a-c, 33a-c); assay type: physicochemical; conditions: LDAA TFA salt/CD formulation; for Physical stability (visual), Day 1: Day 1, room temperature; for Physical stability (visual), Day 2: Day 2, room temperature; for Physical stability (visual), Day 5: Day 5, room temperature after two days at 2-8° C.; for Physical stability (visual), Day 6: Day 6, room temperature after two days at 2-8° C.; for Physical stability (visual), Day 40: Day 40, returned to 2-8° C.
Experimental: It is noted that the formulations were similarly to those above; however, CD was added, and further, the amounts of the antioxidants, i.e., ascorbic acid and NAC, were added at three different concentrations, as detailed in Tables 32a-c below. Further, an additional amount of arginine was added to the solution in order to adjust the pH to a physiologically acceptable pH.
The formulations prepared as detailed in Tables 32a, 32b and 32c were (a) held at room temperature for two days; (b) transferred to a refrigerator (2-8° C.) for two days; and (c) transferred from the refrigerator to room temperature for an additional two days, during which they were assessed again for precipitants. The formulations were then returned to the refrigerator (2-8° C.) and assessed for precipitants on day 40. The physical stability of each formulation was assessed on the first two days and again on the last two days. The physical stability of the formulations was assessed visually. A clear solution was considered to be stable, while a solution comprising precipitants was considered to be physically unstable. The stability results of the formulations of Tables 32a, 32b and 32c are detailed in Tables 33a, 33b and 33c, respectively.

[6] = 0 weeks
Experimental: It is noted that the recovery % compared the amount of any given material as measured at t=28 h (or any other presented value) compared to the amount of that material, at measured at t=0.

[7] = solvent 0.75% CD solution, pH 6.5, precipitated
[8] = solvent 0.75% CD solution, pH 7.4 (line r20)
[9] = solvent 0.75% CD solution, pH 7.4, precipitated (line r14)
[10] = solvent […] CD solution, pH 8.36
[11] = NB 144-15, ~0.1% Asc + ~0.1% NAC
[12] = NB 144-18, ~0.4% Asc + ~0.4% NAC
[13] = NB 144-20, ~0.8% Asc + ~0.8% NAC
[14] = solvent DMSO:(0.1% NaBis in WFI) (70:30), pH 5.40
[15] = solvent NMP:(0.1% NaBis in WFI) (70:30), pH 4.62
[16] = solvent […] CD solution in WFI, pH 8.35 (titer/NaOH)

mean permeability compared with the other compounds (in words) [1]: highest mean permeability
Compound: N[C@@H](CSC[C@H](NC(=O)[C@@H](N)Cc1ccc(O)c(O)c1)C(=O)O)C(=O)O (single isomer, unassigned; peak 2) [LD-LA2 TFA salt, Levodopa Lanthionine Peak 2 TFA Salt]

Compound: NCCCC[C@H](NC(=O)[C@@H](N)Cc1ccc(O)c(O)c1)C(=O)O [LD-Lys TFA salt, Levodopa Lysine TFA Salt] (H-[Dopa]-Lys-OH)
Appearance ([2]; 0.1% NaBis in WFI, pH 7.0, 520 mg/ml salt): clear | Appearance ([2]; 0.75% CD solution, pH 6.5, 250 mg/ml salt): precipitated | Appearance ([2]; 0.75% CD solution, pH 7.4, 205 mg/ml salt): clear | Appearance ([2]; 0.75% CD solution, pH 7.4, 250 mg/ml salt): precipitated | solubility thermodynamic ([2]; 25 °C, aqueous buffer, thermodynamic from solid, solvent 0.1% NaBis in WFI, pH 7.0): 520 mg/mL | solubility thermodynamic ([2]; 25 °C, water, thermodynamic from solid, solvent WFI, pH 1.86): 770 mg/mL | Appearance ([2]; WFI, pH 1.86, 770 mg/ml salt): clear | Appearance ([2]; WFI, pH 7.1, 600 mg/ml salt): clear | Appearance ([2]; […] CD solution, pH 8.36, 180 mg/ml salt): clear | LD-Lys free base Concentration ([2]; solvent 0.1% NaBis in WFI, pH 7.0): 310 mg/mL | LD-Lys TFA salt concentration [2, 7]: 250 mg/mL | LD-Lys free base Concentration [2, 7]: 150 mg/mL | LD-Lys TFA salt concentration [2, 8]: 205 mg/mL | LD-Lys free base Concentration [2, 8]: 120 mg/mL | LD-Lys TFA salt concentration [2, 9]: 250 mg/mL | LD-Lys free base Concentration [2, 9]: 150 mg/mL | LD-Lys free base Concentration ([2]; solvent WFI, pH 1.86): 450 mg/mL | LD-Lys TFA salt concentration ([2]; solvent WFI, pH 7.1): 600 mg/mL | LD-Lys free base Concentration ([2]; solvent WFI, pH 7.1): 350 mg/mL | LD-Lys TFA salt concentration [2, 10]: 180 mg/mL | LD-Lys free base Concentration [2, 10]: 110 mg/mL | Stability ([3]; pH 6.5, 250 mg/ml salt): Precipitated* (precipitated within 12 hours) | Stability ([3]; pH 7.4, 250 mg/ml salt): Precipitated* (precipitated within 12 hours) | Ke [4]: 0.0788 | metabolism in human liver S9 (in words) [4]: rapidly metabolized | Physical stability (visual), Day 1 [5, 11]: Precipitated | Physical stability (visual), Day 2 [5, 11]: Precipitated | Physical stability (visual), Day 5 [5, 11]: Precipitated | Physical stability (visual), Day 6 [5, 11]: Precipitated | Physical stability (visual), Day 40 [5, 11]: Precipitated | Physical stability (visual), Day 1 [5, 12]: Stable | Physical stability (visual), Day 2 [5, 12]: Stable | Physical stability (visual), Day 5 [5, 12]: Precipitated | Physical stability (visual), Day 6 [5, 12]: Precipitated | Physical stability (visual), Day 40 [5, 12]: Precipitated | Physical stability (visual), Day 1 [5, 13]: Stable | Physical stability (visual), Day 2 [5, 13]: Stable | Physical stability (visual), Day 5 [5, 13]: Precipitated | Physical stability (visual), Day 6 [5, 13]: Precipitated | Physical stability (visual), Day 40 [5, 13]: Precipitated

Compound: N[C@@H](Cc1ccc(O)c(O)c1)C(=O)N[C@@H](Cc1ccc(O)cc1)C(=O)O [LD-Tyr TFA salt, Levodopa Tyrosine TFA Salt] (H-[Dopa]-Tyr-OH)
Appearance ([2]; 0.1% sodium bisulfite (Na Bis) in WFI, pH 7.22 (titer/NaOH), 205 mg/ml salt, TFA Salt): precipitated | solubility ([2]; 0.1% sodium bisulfite in WFI, 25 °C, aqueous buffer, thermodynamic from solid, solvent 0.1% sodium bisulfite (Na Bis) in WFI, pH 7.22 (titer/NaOH), precipitated during titration): ≤ 205 mg/mL | Appearance ([2]; DMSO:(0.1% NaBis in WFI) (70:30), pH 5.40, 200 mg/ml salt): clear | Appearance ([2]; DMSO, 184 mg/ml salt): clear | Appearance ([2]; NMP:(0.1% NaBis in WFI) (70:30), pH 4.62, 200 mg/ml salt): clear | Appearance ([2]; NMP, 200 mg/ml salt): Clear | Appearance ([2]; WFI, pH ~2, 210 mg/ml salt): clear | Appearance ([2]; […] CD solution in WFI, pH 8.35, 178 mg/ml salt): clear | LD-Tyr free base Concentration ([2]; solvent 0.1% sodium bisulfite (Na Bis) in WFI, pH 7.22 (titer/NaOH), precipitated during titration): 160 mg/mL | LD-Tyr TFA salt concentration ([2]; solvent DMSO): 184 mg/mL | LD-Tyr free base Concentration ([2]; solvent DMSO): 140 mg/mL | LD-Tyr TFA salt concentration [2, 14]: 200 mg/mL | LD-Tyr free base Concentration [2, 14]: 150 mg/mL | LD-Tyr TFA salt concentration ([2]; solvent NMP): 200 mg/mL | LD-Tyr free base Concentration ([2]; solvent NMP): 150 mg/mL | LD-Tyr TFA salt concentration [2, 15]: 200 mg/mL | LD-Tyr free base Concentration [2, 15]: 150 mg/mL | LD-Tyr TFA salt concentration ([2]; solvent Water for injection (WFI), pH ~2): 210 mg/mL | LD-Tyr free base Concentration ([2]; solvent Water for irrigation (WFI), pH ~2): 160 mg/mL | LD-Tyr TFA salt concentration [2, 16]: 178 mg/mL | LD-Tyr free base Concentration [2, 16]: 135 mg/mL | Ke [4]: 0.0217 | metabolism in human liver S9 (in words) [4]: rapidly metabolized | Physical stability (visual), Day 1 [5, 11]: Stable | Physical stability (visual), Day 2 [5, 11]: Stable | Physical stability (visual), Day 5 [5, 11]: Precipitated | Physical stability (visual), Day 6 [5, 11]: Precipitated | Physical stability (visual), Day 40 [5, 11]: Precipitated | Physical stability (visual), Day 1 [5, 12]: Stable | Physical stability (visual), Day 2 [5, 12]: Stable | Physical stability (visual), Day 5 [5, 12]: Stable | Physical stability (visual), Day 6 [5, 12]: Stable | Physical stability (visual), Day 40 [5, 12]: Stable | Physical stability (visual), Day 1 [5, 13]: Stable | Physical stability (visual), Day 2 [5, 13]: Stable | Physical stability (visual), Day 5 [5, 13]: Stable | Physical stability (visual), Day 6 [5, 13]: Stable | Physical stability (visual), Day 40 [5, 13]: Stable | Analytical stability result (HPLC), t = 0 [6]: 327.05

From US20220362386A1, “LIQUID COMPOSITIONS COMPRISING A LEVODOPA AMINO ACID CONJUGATE AND USES THEREOF” (NeuroDerm, Ltd., priority 2019, published 2022)
